According to patent publication US11236302B2, “Methods and compositions for producing stem cell derived dopaminergic cells for use in treatment of neurodegenerative diseases” (BIOLAMINA AB, priority 2015, dated 2022):

What was measured:
[1] = tested on: RC17 hESCs; experiment: Adherent differentiation of ventral mesencephalon progenitors on full-length laminin subtypes, day 0-11; assay type: cell-based, human; conditions: for yield of neural cells relative to a standard yield of 100%: laminin as coating, day 0-11 of the protocol
Excerpt: To develop a GMP-compatible differentiation protocol for high and reproducible yield of caudilised mesDA ventral mesencephalon progenitors that would result in good graft outcome, a fully GMP-derived hES cell line RC17 from Roslin cells (hPS Creg #RCe021-A) was used. Previous research grade ventral mesencephalon differentiation protocols have implemented steps of embryoid body (EB) formation or culturing on MATRIGEL®, both of which pose problems in GMP adaptation due to difficulties in reproducibility and the content of undefined animal-derived component, respectively.
Relative to a standard yield of 100%, LN-111 yielded 170%, LN-421 yielded 294%, LN-511 yielded 223%, and LN-521 yielded 208%. RC17 cells were differentiated according to the methods described herein, but on plates that were coated with laminin-121 instead of laminin-111. FIG. 8C compares the yields, and the yields are about equal to each other, i.e. LN-121 works about as well as LN-111 as a substrate.

[2] = tested on: undifferentiated hESCs; experiment: Plating of undifferentiated hESCs on laminin matrix in pluripotency medium or differentiation medium; assay type: cell-based, human; conditions: laminin as matrix
Description: When the same number of cells was plated onto LN-111 in B27 medium, the cultures remained adherent and grew to confluency after 7 days of differentiation while showing rapid downregulation of pluripotency markers.

Substance | yield of dopaminergic cells on LN-121 compared with LN-111 ([1]; RC17 cells, plates coated with laminin-121 instead of laminin-111) | support of growth of pluripotent stem cells versus neural cells [2] | yield of neural cells relative to a standard yield of 100% [1]
LN-121: the protein formed by joining α1, β2 and γ1 chains together | about equal |  | 
LN-111: the protein formed by joining α1, β1 and γ1 chains together |  | selectively supported the growth of neural cells but not pluripotent stem cells | 170%
LN-521: the protein formed by joining α5, β2 and γ1 chains together |  | efficiently support growth of hPSCs | 208%
LN-421: the protein formed by joining α4, β2 and γ1 chains together |  |  | 294%
LN-511: the protein formed by joining α5, β1 and γ1 chains together |  | efficiently support growth of hPSCs | 223%
